{"source": "patent US20230174947A1", "about": "“METHODS AND COMPOSITIONS FOR IMPROVING ENDOTHELIAL CELL BARRIER” (United Therapeutics Corporation, priority 2021, published 2023)", "system": "HPAECs", "assay": "HPAEC proliferation, cell counts by Hoechst-stained nuclei (Celigo)", "type": "cell-based, Human", "settings": "Forskolin 40 μM, FTY720-P 50 nM, Methylprednisolone 1 μM; MCDB131", "experimental": "HPAECs were seeded at low initial confluency (3000-5000 cells/cm^2) to study their growth on Collagen type-I coated culture dishes. Barrier agonists were added at 0 hours (FIG. 10A) or at 48 hours (FIG. 10B) and were maintained through the remainder of culture. Barrier agonist compounds, when added to the culture medium (MCDB131), were added at the following concentrations: Forskolin (40 μM), FTY720-P (50 nM), Methylprednisolone (1 μM). Cell counts were measured through individual quantification of nuclei, stained with Hoechst dye and imaged on the Celigo Imaging Cytometer (Nexcelom Bioscience)."}
{"smiles": "CCCCCCCCc1ccc(CC[C@](N)(CO)COP(=O)(O)O)cc1", "note": "[FTY720P, fingolimod-phosphate]", "values": [{"measurement": "endothelial cell proliferation (summary statement of Example 6)", "value": "no reduction in endothelial proliferation"}]}
